{"source": "patent US11612652B2", "about": "“Lipids as synthetic vectors to enhance antigen processing and presentation ex-vivo in dendritic cell therapy” (PDS Biotechnology Corporation, priority 2015, dated 2023)", "key": {"popliteal LN": {"system": "popliteal LN", "assay": "Homing of CFSE labeled adoptively transferred spleen cells with or without pertussis toxin", "format": "in vivo, B6 mice", "conditions": "16 h", "text": "The primary objective of the current experiment was to utilize 5 mice to perform the study described in Example 7 and to visualize the homing of CFSE labeled adoptively transferred cells. The study included a population of cells that had been treated in vitro with pertussis toxin to inactivate chemokine receptors. Pertussis toxin and untreated cells were labeled with two different concentrations of CFSE so that they could be distinguished by flow cytometry. The lymphocytes should be induced to home to lymph nodes.\nSpleen cells were prepared from a single B6 mouse and divided in half. Half of the cells were treated with Pertussis toxin 100 ng/ml for 1 hour at 37° C. and washed. The two cell populations were then labeled with CFSE at two different concentrations so they could be distinguished by flow cytometry, and mixed together. The mix (10^7 cells) was injected i.v. into the tail vein of 5 B6 mice. The mice were then anesthetized and injected in the footpad with either sucrose (right footpad) or R-DOTAP (left footpad, 50 μl, 600 nmoles).\nAfter 16 h, the mice were sacrificed and the popliteal LN and spleens harvested. The total cells recovered from left and right nodes from each mouse were counted."}, "TC1 epithelial cells": {"system": "TC1 epithelial cells", "assay": "DQ-OVA uptake and processing by epithelial cell line", "format": "cell-based, mouse", "conditions": "identical conditions as the BMDC", "protocol": "(§1) This uptake and processing was inhibited at 4° C. confirming that active cytoskeletal rearrangements are required for this type of uptake. […] The effect of R-DOTAP was concentration dependent with 50 uM showing the greatest effect. To determine if the R-DOTAP enhancement of protein uptake is cell dependent, a mouse epithelial cell line was incubated with DQ-OVA under identical conditions as the BMDC. […] Further, they indicate that this enhancement is selective for dendritic cells and not other, non-antigen presenting cell types."}, "[1]": {"system": "HPV16-specific CD8+ T-cells", "assay": "IFN-gamma ELISPOT of splenocytes after vaccination with KF18 HPV peptide formulations", "format": "in vivo, C57 black mice", "conditions": "vaccinated Day 0 and Day 7, sacrificed Day 14", "protocol": "C57 black mice were vaccinated with various formulations: […]\nGroup 1: KF18 HPV peptide ([…]) (SEQ ID NO: 4)\nGroup 2: KF18 HPV peptide+R-DOTAP liposomes\nGroup 3: KF18 HPV peptide+S-DOTAP liposomes\nGroup 4: KF18 peptide+MPL/Alum adjuvant\n5 mice per group were injected with the various formulations. The mice were vaccinated on Day 0 and Day 7 and sacrificed on Day 14. The splenocytes were removed and ELISPOT studies performed. The splenocytes were stimulated with the peptide […] (RF9) (SEQ ID NO: 5), the HPV16 CD8+ T-cell epitope peptide recognized by the C57 mice. […] An additional example of this effect is observed with the cationic lipid DDA. […] However, it has been reported that in order to induce strong antigen-specific T-cell responses that DDA is used in combination with strong adjuvants (Brandt L. et al, ESAT-6 Subunit Vaccination against Mycobacterium tuberculosis, Infect Immun. 2000 February; 68(2): 791-795)."}, "[2]": {"system": "mouse bone marrow derived dendritic cells (BMDCs)", "assay": "Alexa Fluor 647-OVA uptake by BMDCs, flow cytometry", "format": "cell-based", "conditions": "50 μM cationic lipid, 20 μg/ml Alexa Fluor 647-OVA, 37° C., 10-60 minutes, versus 280 mM sucrose diluent", "protocol": "In order to determine the effect of cationic lipids on the uptake of protein antigen, mouse bone marrow derived dendritic cells (BMDCs) were pulsed with Alexa Fluor®647-OVA conjugate and quantified ovalbumin uptake by BMDCs using flow cytometry. Briefly, 2×10^6 cells/ml BMDCs were incubated at 37° C. for 10-60 minutes in serum free RPMI 1640 cell culture media containing 20 μg/ml ovalbumin (Ovalbumin Alexa Fluor® 647 conjugate; life technologies, cat #034784) and 50 μM cationic lipid (RDOTAP) or 280 mM sucrose diluent. Cells were washed after pulsing to remove non-cell associated ovalbumin and fixed with 1% formaldehyde for flow cytometer analysis. The ovalbumin uptake was quantified using BD LSR II flow cytometer."}, "[3]": {"system": "BMDC (CD11c positive cells)", "assay": "DQ-OVA uptake and processing by BMDC, flow cytometry", "format": "cell-based, mouse", "protocol": "In order to determine the effects of cationic lipids on antigen uptake and processing by dendritic cells ex-vivo, a fluorescent ovalbumin protein called DQ-OVA was used. DQ-OVA is non-fluorescent when intact, but emits both red and green fluorescence when the protein is degraded. BMDC were incubated at 37° C. or 4° C. for 1 hr with DQ-OVA alone, or DQ-OVA mixed with different concentrations of the cationic lipid DOTAP. The cells were then washed, fixed, and stained with fluorescent antibodies to CD11c, a marker for dendritic cells. Cells were then analyzed on an LSRII flow cytometer in both red and green fluorescent channels.\nThis represents the well-known mannose receptor mediated uptake of OVA by DC. […] Graphical representation of the fluorescent uptake of DQ-OVA into BMDC measured by flow cytometry.\nas §1\nIn order to determine whether lipid adjuvants could mediate the same effect as R-DOTAP, BMDC were incubated with DQ-OVA in media alone or with R-DOTAP as described for FIG. 1. In addition, BMDC were incubated under identical conditions with the potent lipid adjuvant lipopolysaccharide (LPS). Mouse bone marrow DC were incubated in the presence of fluorescent DQ-OVA for one hour at either 37° C. or 4° C./azide in the presence of 25 μM DOTAP nanoparticles, 10 μg/ml LPS or media alone, and analyzed by flow cytometry. […] Monophorphoryl lipid-A (MPL) is a lower toxicity derivative of LPS that is now an FDA approved adjuvant in several vaccines."}, "popliteal lymph nodes": {"system": "popliteal lymph nodes", "assay": "Influx of T-cells and total lymphocytes into draining lymph nodes after foot pad injection", "format": "in vivo, mice", "protocol": "12 mM R-DOTAP or sucrose as control were injected into the right and eft foot pad respectively of mice and the influx of T-cells and total lymphocytes into the draining lymph nodes were quantified by flow cytometry. In this experiment, 15 hours after vaccination the popliteal lymph nodes were removed and analysis performed. […] Five mice were used per study."}}}
{"smiles": "CCCCCCCC/C=C\\CCCCCCCC(=O)OCC(C[N+](C)(C)C)OC(=O)CCCCCCC/C=C\\CCCCCCCC", "note": "(centres unmarked) [R-DOTAP, 1,2-dioleoyl-3-trimethylammonium propane]", "values": [{"measurement": "infiltration of transferred CFSE labeled lymphocytes into lymph node", "setting": "popliteal LN; R-DOTAP footpad 50 μl, 600 nmoles, untreated cells", "result": "transferred CFSE labeled lymphocytes also infiltrated the lymph node upon R-DOTAP vaccination"}, {"measurement": "infiltration of pertussis toxin treated CFSE labeled cells into lymph node", "setting": "popliteal LN; cells treated with Pertussis toxin 100 ng/ml", "result": "this did not occur with the pertussis treated cells"}, {"measurement": "DQ-OVA uptake and processing in TC1 epithelial cells", "setting": "TC1 epithelial cells", "result": "only observed in DC and not in TC1 epithelial cells"}, {"measurement": "HPV-specific CD8+ T-cell response (ELISPOT, RF9 stimulation)", "setting": "[1]", "result": "effective in inducing strong HPV-specific CD8+ T-cell responses"}, {"measurement": "ovalbumin (protein) uptake by BMDC, fluorescence intensity", "setting": "[2]", "result": "significantly increased the protein uptake by BMDC at all time points measured"}, {"measurement": "DQ-OVA uptake at 4° C.", "setting": "[3]; 4° C., 1 hr", "result": "Significant uptake was even seen at 4 °C"}, {"measurement": "DQ-OVA uptake and processing, mean green fluorescence of CD11c positive cells", "setting": "[3]; 37° C., 1 hr, versus DQ-OVA alone", "result": "doubling of fluorescence"}, {"measurement": "concentration showing the greatest effect on DQ-OVA uptake", "setting": "[3]; concentration dependent effect", "result": 50, "unit": "µM"}, {"measurement": "enhancement of DQ-OVA uptake and processing compared with known adjuvants (red fluorescence)", "setting": "[3]; one hour, 25 μM DOTAP nanoparticles, 10 μg/ml LPS or media alone", "result": "greatly enhanced"}, {"measurement": "infiltration of T-cells into the draining lymph node", "setting": "popliteal lymph nodes; 12 mM R-DOTAP in foot pad, 15 hours after vaccination, versus sucrose", "result": "induced significant infiltration of T-cells into the lymph node"}, {"measurement": "lymphocyte infiltration into the lymph nodes over time", "setting": "popliteal lymph nodes; 5 hours, 16 hours, 3 days and 4 days", "result": "lymphocyte infiltration into the lymph nodes was seen to increase over the 4-day period"}]}
